# Results: US20250312352A1, “GLP-1R MODULATING COMPOUNDS” (Gilead Sciences, Inc., priority 2021, published 2025)
# Target: T1, GLP-1R (Homo sapiens, UniProt P43220)
# T1 construct: host or cells: CHO cells
# Assay: GLP-1R activation cAMP assay (Assay 1 or Assay 2)
# Type: cell-based
# Details: cAMP increase in CHO cells stably expressing GLP-1R; compounds run on one of the two cAMP assays
# Summary of the method: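 EC50 values come from a sigmoidal fit of HTRF-detected cAMP rise versus log agonist concentration. GLP-1R-expressing CHO cells, equilibrated 1 h at 37 °C in HBSS with HEPES and BSA, received a 10-point compound dose series for 30 min before detection.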
# T1 sequence (P43220 24-463): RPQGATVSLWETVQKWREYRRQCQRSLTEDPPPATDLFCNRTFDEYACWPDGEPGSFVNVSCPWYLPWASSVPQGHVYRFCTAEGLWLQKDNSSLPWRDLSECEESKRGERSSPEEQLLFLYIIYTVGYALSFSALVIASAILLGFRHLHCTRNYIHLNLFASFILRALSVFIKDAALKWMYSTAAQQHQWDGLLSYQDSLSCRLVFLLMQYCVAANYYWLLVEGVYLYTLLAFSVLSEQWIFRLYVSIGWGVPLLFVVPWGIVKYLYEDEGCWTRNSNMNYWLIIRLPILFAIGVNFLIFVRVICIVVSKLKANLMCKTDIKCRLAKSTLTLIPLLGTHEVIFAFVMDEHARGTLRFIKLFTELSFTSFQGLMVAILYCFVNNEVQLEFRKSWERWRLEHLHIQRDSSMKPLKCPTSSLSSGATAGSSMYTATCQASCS
row,SMILES,EC50 [pM]
1,"COCCn1c(Cc2cc(F)c(-c3cccc(OCc4ccc(-c5cnn(Cc6cccnc6)c5)cc4F)n3)cc2F)nc2ccc(C(=O)O)cc21 [Example 237, 2-[[2,5-difluoro-4-[6-[[2-fluoro-4-[1-(3-pyridylmethyl)pyrazol-4-yl]phenyl]methoxy]-2-pyridyl]phenyl]methyl]-3-(2-methoxyethyl)benzimidazole-5-carboxylic acid]",3680
2,"N#CCn1ccc(COc2cccc(-c3cc(F)c(Cc4nc5ccc(C(=O)O)cc5n4C[C@@H]4CCO4)cc3F)n2)n1 [Example 238, 2-[[4-[6-[[1-(cyanomethyl)pyrazol-3-yl]methoxy]-2-pyridyl]-2,5-difluoro-phenyl]methyl]-3-[[(2S)-oxetan-2-yl]methyl]benzimidazole-5-carboxylic acid]",8610
3,"N#CCn1nccc1COc1cccc(-c2cc(F)c(Cc3nc4ccc(C(=O)O)cc4n3C[C@@H]3CCO3)cc2F)n1 [Example 239, (S)-2-(4-(6-((1-(cyanomethyl)-1H-pyrazol-5-yl)methoxy)pyridin-2-yl)-2,5-difluorobenzyl)-1-(oxetan-2-ylmethyl)-1H-benzo[d]imidazole-6-carboxylic acid]",447000
4,"NC(=O)c1ccc(COc2cccc(-c3cc(F)c(Cc4nc5ccc(C(=O)O)cc5n4C[C@@H]4CCO4)cc3F)n2)c(F)n1 [Example 240, 2-[[4-[6-[(6-carbamoyl-2-fluoro-3-pyridyl)methoxy]-2-pyridyl]-2,5-difluoro-phenyl]methyl]-3-[[(2S)-oxetan-2-yl]methyl]benzimidazole-5-carboxylic acid]",1130
5,"NC(=O)c1cc(F)c(COc2cccc(-c3cc(F)c(Cc4nc5c(F)cc(C(=O)O)cc5n4C[C@@H]4CCO4)cc3F)n2)cn1 [Example 241, (S)-2-(4-(6-((6-carbamoyl-4-fluoropyridin-3-yl)methoxy)pyridin-2-yl)-2,5-difluorobenzyl)-4-fluoro-1-(oxetan-2-ylmethyl)-1H-benzo[d]imidazole-6-carboxylic acid]",120
6,"COc1cc(C(N)=O)ncc1COc1cccc(-c2cc(F)c(Cc3nc4ccc(C(=O)O)cc4n3C[C@@H]3CCO3)cc2F)n1 [Example 242, (S)-2-(4-(6-((6-carbamoyl-4-methoxypyridin-3-yl)methoxy)pyridin-2-yl)-2,5-difluorobenzyl)-1-(oxetan-2-ylmethyl)-1H-benzo[d]imidazole-6-carboxylic acid]",20
7,"CNC(=O)c1cc(F)c(COc2cccc(-c3cc(F)c(Cc4nc5ccc(C(=O)O)cc5n4C[C@@H]4CCO4)cc3F)n2)cn1 [Example 243, 2-[[2,5-difluoro-4-[6-[[4-fluoro-6-(methylcarbamoyl)-3-pyridyl]methoxy]-2-pyridyl]phenyl]methyl]-3-[[(2S)-oxetan-2-yl]methyl]benzimidazole-5-carboxylic acid]",170
8,"O=C(O)c1ccc2nc(Cc3cc(F)c(-c4cccc(OCc5cnc(C(=O)NC6CCCC6)cc5F)n4)cc3F)n(C[C@@H]3CCO3)c2c1 [Example 244, (S)-2-(4-(6-((6-(cyclopentylcarbamoyl)-4-fluoropyridin-3-yl)methoxy)pyridin-2-yl)-2,5-difluorobenzyl)-1-(oxetan-2-ylmethyl)-1H-benzo[d]imidazole-6-carboxylic acid]",2280
9,"O=C(O)c1ccc2nc(Cc3cc(F)c(-c4cccc(OCc5cnc(C(=O)NC6CC6)cc5F)n4)cc3F)n(C[C@@H]3CCO3)c2c1 [Example 245, (S)-2-(4-(6-((6-(cyclopropylcarbamoyl)-4-fluoropyridin-3-yl)methoxy)pyridin-2-yl)-2,5-difluorobenzyl)-1-(oxetan-2-ylmethyl)-1H-benzo[d]imidazole-6-carboxylic acid]",100
10,"O=C(O)c1ccc2nc(Cc3cc(F)c(-c4cccc(OCc5cnc(C(=O)NC6CCC6)cc5F)n4)cc3F)n(C[C@@H]3CCO3)c2c1 [Example 246, (S)-2-(4-(6-((6-(cyclobutylcarbamoyl)-4-fluoropyridin-3-yl)methoxy)pyridin-2-yl)-2,5-difluorobenzyl)-1-(oxetan-2-ylmethyl)-1H-benzo[d]imidazole-6-carboxylic acid]",570
11,"O=C(O)c1ccc2nc(Cc3cc(F)c(-c4cccc(OCc5cnc(C(=O)NC6COC6)cc5F)n4)cc3F)n(C[C@@H]3CCO3)c2c1 [Example 247, (S)-2-(2,5-difluoro-4-(6-((4-fluoro-6-(oxetan-3-ylcarbamoyl)pyridin-3-yl)methoxy)pyridin-2-yl)benzyl)-1-(oxetan-2-ylmethyl)-1H-benzo[d]imidazole-6-carboxylic acid]",250
12,"NC(=O)c1ccc(COc2cccc(-c3cc(F)c(Cc4nc5ccc(C(=O)O)cc5n4C[C@@H]4CCO4)cc3F)n2)nc1 [Example 248, 2-[[4-[6-[(5-carbamoyl-2-pyridyl)methoxy]-2-pyridyl]-2,5-difluoro-phenyl]methyl]-3-[[(2S)-oxetan-2-yl]methyl]benzimidazole-5-carboxylic acid]",5610
13,"COCCn1c(Cc2cc(F)c(-c3cccc(OCc4ccc(C(=O)NC5CC5)cc4)n3)cc2F)nc2ccc(C(=O)O)cc21 [Example 249, 2-[[4-[6-[[4-(cyclopropylcarbamoyl)phenyl]methoxy]-2-pyridyl]-2,5-difluoro-phenyl]methyl]-3-(2-methoxyethyl)benzimidazole-5-carboxylic acid]",36100
14,"COCCn1c(Cc2cc(F)c(-c3cccc(OCc4ccc(-n5cnc(C6CC6)n5)nc4)n3)cc2F)nc2ccc(C(=O)O)cc21 [Example 250, 2-(4-(6-((6-(3-cyclopropyl-1H-1,2,4-triazol-1-yl)pyridin-3-yl)methoxy)pyridin-2-yl)-2,5-difluorobenzyl)-1-(2-methoxyethyl)-1H-benzo[d]imidazole-6-carboxylic acid]",22600
15,"COCCn1c(Cc2cc(F)c(-c3cccc(OCc4ccc(C#CC5CN(C(C)=O)C5)cc4F)n3)cc2F)nc2ccc(C(=O)O)cc21 [Example 251, 2-[[4-[6-[[4-[2-(1-acetylazetidin-3-yl)ethynyl]-2-fluoro-phenyl]methoxy]-2-pyridyl]-2,5-difluoro-phenyl]methyl]-3-(2-methoxyethyl)benzimidazole-5-carboxylic acid]",890
16,"CC1(C)COC[C@H]1n1c(Cc2cc(F)c(-c3ccc(F)c(OCc4ncc(C(F)(F)F)s4)n3)cc2F)nc2c(F)cc(C(=O)O)cc21 [Example 252, 2-[[2,5-difluoro-4-[5-fluoro-6-[[5-(trifluoromethyl)thiazol-2-yl]methoxy]-2-pyridyl]phenyl]methyl]-3-[(3S)-4,4-dimethyltetrahydrofuran-3-yl]-7-fluoro-benzimidazole-5-carboxylic acid]",75
17,"CC1(C)COC[C@H]1n1c(Cc2cc(F)c(-c3cccc(OCc4ncc(Cl)s4)n3)cc2F)nc2ccc(C(=O)O)cc21 [Example 254, (S)-2-(4-(6-((5-chlorothiazol-2-yl)methoxy)pyridin-2-yl)-2,5-difluorobenzyl)-1-(4,4-dimethyltetrahydrofuran-3-yl)-1H-benzo[d]imidazole-6-carboxylic acid]",374
18,"CC1(C)COC[C@H]1n1c(Cc2cc(F)c(-c3ccc(F)c(OCc4ncc(Cl)s4)n3)cc2F)nc2ccc(C(=O)O)cc21 [Example 255, (S)-2-(4-(6-((5-chlorothiazol-2-yl)methoxy)-5-fluoropyridin-2-yl)-2,5-difluorobenzyl)-1-(4,4-dimethyltetrahydrofuran-3-yl)-1H-benzo[d]imidazole-6-carboxylic acid]",366
19,"CCOc1nnc(COc2nc(-c3cc(F)c(Cc4nc5ccc(C(=O)O)cc5n4CC4(CF)CC4)cc3F)ccc2F)s1 [Example 256, 2-(4-(6-((5-ethoxy-1,3,4-thiadiazol-2-yl)methoxy)-5-fluoropyridin-2-yl)-2,5-difluorobenzyl)-1-((1-(fluoromethyl)cyclopropyl)methyl)-1H-benzo[d]imidazole-6-carboxylic acid]",443
20,"Cc1cc(Cc2nc3ccc(C(=O)O)cc3n2[C@@H]2COCC2(C)C)c(F)cc1-c1cccc(OCc2ncc(Cl)s2)n1 [Example 257, (S)-2-(4-(6-((5-chlorothiazol-2-yl)methoxy)pyridin-2-yl)-2-fluoro-5-methylbenzyl)-1-(4,4-dimethyltetrahydrofuran-3-yl)-1H-benzo[d]imidazole-6-carboxylic acid]",583
21,"COc1nnc(COc2nc(-c3cc(F)c(Cc4nc5ccc(C(=O)O)cc5n4[C@@H]4COCC4(C)C)cc3C)ccc2F)s1 [Example 258, (S)-1-(4,4-dimethyltetrahydrofuran-3-yl)-2-(2-fluoro-4-(5-fluoro-6-((5-methoxy-1,3,4-thiadiazol-2-yl)methoxy)pyridin-2-yl)-5-methylbenzyl)-1H-benzo[d]imidazole-6-carboxylic acid]",483
22,"CCOc1nnc(COc2cccc(-c3cc(F)c(Cc4nc5ccc(C(=O)O)cc5n4[C@@H]4COCC4(C)C)cc3C)c2)s1 [Example 259, (S)-1-(4,4-dimethyltetrahydrofuran-3-yl)-2-((3′-((5-ethoxy-1,3,4-thiadiazol-2-yl)methoxy)-5-fluoro-2-methyl-[1,1′-biphenyl]-4-yl)methyl)-1H-benzo[d]imidazole-6-carboxylic acid]",577
23,"CCOc1nnc(COc2cc(-c3cc(F)c(Cc4nc5ccc(C(=O)O)cc5n4[C@@H]4COCC4(C)C)cc3C)ccc2F)s1 [Example 260, (S)-1-(4,4-dimethyltetrahydrofuran-3-yl)-2-((3′-((5-ethoxy-1,3,4-thiadiazol-2-yl)methoxy)-4′,5-difluoro-2-methyl-[1,1′-biphenyl]-4-yl)methyl)-1H-benzo[d]imidazole-6-carboxylic acid]",254
24,"COc1nnc(COc2cccc(-c3cc(F)c(Cc4nc5ccc(C(=O)O)cc5n4[C@@H]4COCC4(C)C)cc3C)n2)s1 [Example 261, (S)-1-(4,4-dimethyltetrahydrofuran-3-yl)-2-(2-fluoro-4-(6-((5-methoxy-1,3,4-thiadiazol-2-yl)methoxy)pyridin-2-yl)-5-methylbenzyl)-1H-benzo[d]imidazole-6-carboxylic acid]",44
